Measured values published in US12214092B2, “Systems and methods for treating biological fluids” (Cerus Corporation, priority 2017, dated 2025).

Tested on: platelets
Experiment: Platelet quality, apheresis platelets in 100% plasma, 15 μM S-59, INT-100 (~3.6 J/cm^2) or 340 nm LED 1x/2x/3x (~3.6/7.2/10.8 J/cm^2)
Assay type: cell-based
Excerpt: Additional units were illuminated with the INT-100 device at ˜3.6 J/cm^2 for comparison or maintained as an untreated control. […] As shown in the following Tables 11-19, for platelet quality parameters, results were generally similar among the controls and INT-100 and 340 nm test samples, except for the 3×340 nm dosage for certain parameters.

Cc1oc2c(C)c3oc(=O)cc(C)c3cc2c1COCCN [S-59, 3-(2-aminoethoxymethyl)-2,5,9-trimethylfuro[3,2-g]chromen-7-one]
Adenosine triphosphate (ATP) (340 nm (1x), D3): 4.4 mmole/10^8 platelets | Glucose (340 nm (1x), D3): 13.49 mmol/L | LDH (340 nm (1x), D3): 12.1 LDH IU/10^11 platelets | Lactate (340 nm (1x), D3): 15.17 mmol/L | Platelet counts (340 nm (1x), D3): 1391 ×10^3 cells/μL | Platelet lysis (340 nm (1x), D3): 4.90% | pCO2 at 37° C. (340 nm (1x), D3): 54.4 mmHg | pH at 37° C. (340 nm (1x), D3): 6.84 | pO2 at 37° C. (340 nm (1x), D3): 11.8 mmHg | Adenosine triphosphate (ATP) (340 nm (1x), D5): 4.0 mmole/10^8 platelets | Glucose (340 nm (1x), D5): 10.27 mmol/L | LDH (340 nm (1x), D5): 12.1 LDH IU/10^11 platelets | Lactate (340 nm (1x), D5): 19.81 mmol/L | Platelet counts (340 nm (1x), D5): 1338 ×10^3 cells/μL | Platelet lysis (340 nm (1x), D5): 4.43% | pCO2 at 37° C. (340 nm (1x), D5): 35.7 mmHg | pH at 37° C. (340 nm (1x), D5): 6.70 | pO2 at 37° C. (340 nm (1x), D5): 22.5 mmHg | Adenosine triphosphate (ATP) (340 nm (1x), D7): 3.7 mmole/10^8 platelets | Glucose (340 nm (1x), D7): 8.32 mmol/L | LDH (340 nm (1x), D7): 13.1 LDH IU/10^11 platelets | Lactate (340 nm (1x), D7): 21.83 mmol/L | Platelet counts (340 nm (1x), D7): 1391 ×10^3 cells/μL | Platelet lysis (340 nm (1x), D7): 5.23% | pCO2 at 37° C. (340 nm (1x), D7): 34.3 mmHg | pH at 37° C. (340 nm (1x), D7): 6.58 | pO2 at 37° C. (340 nm (1x), D7): 16.6 mmHg | Glucose (340 nm (1x), Post-UVA): 17.45 mmol/L | LDH (340 nm (1x), Post-UVA): 11.3 LDH IU/10^11 platelets | Lactate (340 nm (1x), Post-UVA): 9.05 mmol/L | Platelet counts (340 nm (1x), Post-UVA): 1366 ×10^3 cells/μL | Platelet lysis (340 nm (1x), Post-UVA): 4.48% | pCO2 at 37° C. (340 nm (1x), Post-UVA): 91.9 mmHg | pH at 37° C. (340 nm (1x), Post-UVA): 6.89 | pO2 at 37° C. (340 nm (1x), Post-UVA): 14.3 mmHg | Adenosine triphosphate (ATP) (340 nm (1x), Pre-UVA): 4.0 mmole/10^8 platelets | LDH (340 nm (1x), Pre-UVA): 10.5 LDH IU/10^11 platelets | Platelet counts (340 nm (1x), Pre-UVA): 1453 ×10^3 cells/μL | Platelet lysis (340 nm (1x), Pre-UVA): 4.30% | pCO2 at 37° C. (340 nm (1x), Pre-UVA): 89.6 mmHg | pH at 37° C. (340 nm (1x), Pre-UVA): 6.90 | pO2 at 37° C. (340 nm (1x), Pre-UVA): 41.8 mmHg | Adenosine triphosphate (ATP) (340 nm (2x), D3): 4.4 mmole/10^8 platelets | Glucose (340 nm (2x), D3): 13.63 mmol/L | LDH (340 nm (2x), D3): 12.1 LDH IU/10^11 platelets | Lactate (340 nm (2x), D3): 14.55 mmol/L | Platelet counts (340 nm (2x), D3): 1317 ×10^3 cells/μL | Platelet lysis (340 nm (2x), D3): 4.59% | pCO2 at 37° C. (340 nm (2x), D3): 54.5 mmHg | pH at 37° C. (340 nm (2x), D3): 6.86 | pO2 at 37° C. (340 nm (2x), D3): 14.8 mmHg | Adenosine triphosphate (ATP) (340 nm (2x), D5): 4.1 mmole/10^8 platelets | Glucose (340 nm (2x), D5): 10.69 mmol/L | LDH (340 nm (2x), D5): 13.0 LDH IU/10^11 platelets | Lactate (340 nm (2x), D5): 19.06 mmol/L | Platelet counts (340 nm (2x), D5): 1370 ×10^3 cells/μL | Platelet lysis (340 nm (2x), D5): 4.92% | pCO2 at 37° C. (340 nm (2x), D5): 37.5 mmHg | pH at 37° C. (340 nm (2x), D5): 6.72 | pO2 at 37° C. (340 nm (2x), D5): 15.3 mmHg | Adenosine triphosphate (ATP) (340 nm (2x), D7): 3.7 mmole/10^8 platelets | Glucose (340 nm (2x), D7): 8.34 mmol/L | LDH (340 nm (2x), D7): 13.2 LDH IU/10^11 platelets | Lactate (340 nm (2x), D7): 22.13 mmol/L | Platelet counts (340 nm (2x), D7): 1376 ×10^3 cells/μL | Platelet lysis (340 nm (2x), D7): 5.19% | pCO2 at 37° C. (340 nm (2x), D7): 36.4 mmHg | pH at 37° C. (340 nm (2x), D7): 6.56 | pO2 at 37° C. (340 nm (2x), D7): 14.1 mmHg | Glucose (340 nm (2x), Post-UVA): 16.98 mmol/L | LDH (340 nm (2x), Post-UVA): 12.1 LDH IU/10^11 platelets | Lactate (340 nm (2x), Post-UVA): 8.77 mmol/L | Platelet counts (340 nm (2x), Post-UVA): 1301 ×10^3 cells/μL | Platelet lysis (340 nm (2x), Post-UVA): 4.50% | pCO2 at 37° C. (340 nm (2x), Post-UVA): 94.1 mmHg | pH at 37° C. (340 nm (2x), Post-UVA): 6.89 | pO2 at 37° C. (340 nm (2x), Post-UVA): 14.2 mmHg | Adenosine triphosphate (ATP) (340 nm (2x), Pre-UVA): 3.9 mmole/10^8 platelets | LDH (340 nm (2x), Pre-UVA): 10.5 LDH IU/10^11 platelets | Platelet counts (340 nm (2x), Pre-UVA): 1448 ×10^3 cells/μL | Platelet lysis (340 nm (2x), Pre-UVA): 4.30% | pCO2 at 37° C. (340 nm (2x), Pre-UVA): 88.5 mmHg | pH at 37° C. (340 nm (2x), Pre-UVA): 6.90 | pO2 at 37° C. (340 nm (2x), Pre-UVA): 45.9 mmHg | Adenosine triphosphate (ATP) (340 nm (3x), D3): 3.8 mmole/10^8 platelets | Glucose (340 nm (3x), D3): 10.87 mmol/L | LDH (340 nm (3x), D3): 11.6 LDH IU/10^11 platelets | Lactate (340 nm (3x), D3): 20.42 mmol/L | Platelet counts (340 nm (3x), D3): 1372 ×10^3 cells/μL | Platelet lysis (340 nm (3x), D3): 4.78% | pCO2 at 37° C. (340 nm (3x), D3): 62.5 mmHg | pH at 37° C. (340 nm (3x), D3): 6.56 | pO2 at 37° C. (340 nm (3x), D3): 27.7 mmHg | Adenosine triphosphate (ATP) (340 nm (3x), D5): 0.4 mmole/10^8 platelets | Glucose (340 nm (3x), D5): 1.33 mmol/L | LDH (340 nm (3x), D5): 16.0 LDH IU/10^11 platelets | Lactate (340 nm (3x), D5): 36.09 mmol/L | Platelet counts (340 nm (3x), D5): 1550 ×10^3 cells/μL | Platelet lysis (340 nm (3x), D5): 6.62% | pCO2 at 37° C. (340 nm (3x), D5): 13.9 mmHg | pH at 37° C. (340 nm (3x), D5): 5.57 | pO2 at 37° C. (340 nm (3x), D5): 159.5 mmHg | Adenosine triphosphate (ATP) (340 nm (3x), D7): −0.1 mmole/10^8 platelets | Glucose (340 nm (3x), D7): 0.43 mmol/L | LDH (340 nm (3x), D7): 33.7 LDH IU/10^11 platelets | Lactate (340 nm (3x), D7): 36.36 mmol/L | Platelet counts (340 nm (3x), D7): 1474 ×10^3 cells/μL | Platelet lysis (340 nm (3x), D7): 16.6% | pCO2 at 37° C. (340 nm (3x), D7): 4.4 mmHg | pH at 37° C. (340 nm (3x), D7): 5.49 | pO2 at 37° C. (340 nm (3x), D7): 178.6 mmHg | Glucose (340 nm (3x), Post-UVA): 16.77 mmol/L | LDH (340 nm (3x), Post-UVA): 12.1 LDH IU/10^11 platelets | Lactate (340 nm (3x), Post-UVA): 9.48 mmol/L | Platelet counts (340 nm (3x), Post-UVA): 1322 ×10^3 cells/μL | Platelet lysis (340 nm (3x), Post-UVA): 4.77% | pCO2 at 37° C. (340 nm (3x), Post-UVA): 98.1 mmHg | pH at 37° C. (340 nm (3x), Post-UVA): 6.87 | pO2 at 37° C. (340 nm (3x), Post-UVA): 19.7 mmHg | Adenosine triphosphate (ATP) (340 nm (3x), Pre-UVA): 3.6 mmole/10^8 platelets | LDH (340 nm (3x), Pre-UVA): 10.5 LDH IU/10^11 platelets | Platelet counts (340 nm (3x), Pre-UVA): 1452 ×10^3 cells/μL | Platelet lysis (340 nm (3x), Pre-UVA): 4.30% | pCO2 at 37° C. (340 nm (3x), Pre-UVA): 98.2 mmHg | pH at 37° C. (340 nm (3x), Pre-UVA): 6.87 | pO2 at 37° C. (340 nm (3x), Pre-UVA): 90.9 mmHg | Adenosine triphosphate (ATP) (INT-100, D3): 4.3 mmole/10^8 platelets | Glucose (INT-100, D3): 13.11 mmol/L | LDH (INT-100, D3): 11.9 LDH IU/10^11 platelets | Lactate (INT-100, D3): 14.71 mmol/L | Platelet counts (INT-100, D3): 1395 ×10^3 cells/μL | Platelet lysis (INT-100, D3): 4.69% | pCO2 at 37° C. (INT-100, D3): 55.8 mmHg | pH at 37° C. (INT-100, D3): 6.82 | pO2 at 37° C. (INT-100, D3): 18.9 mmHg | Adenosine triphosphate (ATP) (INT-100, D5): 4.0 mmole/10^8 platelets | Glucose (INT-100, D5): 10.26 mmol/L | LDH (INT-100, D5): 11.6 LDH IU/10^11 platelets | Lactate (INT-100, D5): 20.18 mmol/L | Platelet counts (INT-100, D5): 1400 ×10^3 cells/μL | Platelet lysis (INT-100, D5): 4.50% | pCO2 at 37° C. (INT-100, D5): 36.4 mmHg | pH at 37° C. (INT-100, D5): 6.67 | pO2 at 37° C. (INT-100, D5): 20.1 mmHg | Adenosine triphosphate (ATP) (INT-100, D7): 3.5 mmole/10^8 platelets | Glucose (INT-100, D7): 8.19 mmol/L | LDH (INT-100, D7): 12.6 LDH IU/10^11 platelets | Lactate (INT-100, D7): 23.31 mmol/L | Platelet counts (INT-100, D7): 1439 ×10^3 cells/μL | Platelet lysis (INT-100, D7): 5.18% | pCO2 at 37° C. (INT-100, D7): 35.0 mmHg | pH at 37° C. (INT-100, D7): 6.54 | pO2 at 37° C. (INT-100, D7): 19.7 mmHg | Glucose (INT-100, Post-UVA): 17.24 mmol/L | LDH (INT-100, Post-UVA): 11.5 LDH IU/10^11 platelets | Lactate (INT-100, Post-UVA): 8.85 mmol/L | Platelet counts (INT-100, Post-UVA): 1415 ×10^3 cells/μL | Platelet lysis (INT-100, Post-UVA): 4.74% | pCO2 at 37° C. (INT-100, Post-UVA): 91.4 mmHg | pH at 37° C. (INT-100, Post-UVA): 6.89 | pO2 at 37° C. (INT-100, Post-UVA): 36.4 mmHg | Adenosine triphosphate (ATP) (INT-100, Pre-UVA): 3.9 mmole/10^8 platelets | LDH (INT-100, Pre-UVA): 10.3 LDH IU/10^11 platelets | Platelet counts (INT-100, Pre-UVA): 1481 ×10^3 cells/μL | Platelet lysis (INT-100, Pre-UVA): 4.30% | pCO2 at 37° C. (INT-100, Pre-UVA): 101.1 mmHg | pH at 37° C. (INT-100, Pre-UVA): 6.87 | pO2 at 37° C. (INT-100, Pre-UVA): 98.4 mmHg
